# Results published in US11007274B2, “Compounds for medicinal applications” (Ausvir Therapeutics Pty LTD, priority 2015, dated 2021).
# Several values for one entry are separate records, joined by “and”; a condition that tells them apart may be missing. Equal entries are not always repeated. Where two headings read alike, the source gives them in different places.
# Key:
# [1] = system: Influenza A virus H5N1, Hong Kong/213/2003; assay: microbe, parasite or virus in culture; format: cell-based; details: Influenza A virus, H5N1
# A/PR/8 virus H1N1 = assay: Viral Plaque Reduction Assay (Table 23); format: cell-based, influenza virus; details: Influenza A virus
# [2] = system: Influenza B virus, B/Brisbane/60/2008; assay: microbe, parasite or virus in culture; format: cell-based; details: Table 18, Neutral Red
# [3] = system: Influenza A virus H3N2, Perth/16/2009; assay: microbe, parasite or virus in culture; format: cell-based; details: Table 11, Neutral Red, read-out: EC50
# [4] = system: Influenza A virus H3N2, Perth/16/2009; assay: microbe, parasite or virus in culture; format: cell-based
# kinases = assay: KINOME scan profiling (Table 41)
# Florida/4/2006 = assay: microbe, parasite or virus in culture; format: cell-based; details: unidentified influenza virus; Table 7
# CA/07/2009 = assay: microbe, parasite or virus in culture; format: cell-based; details: unidentified influenza virus, Table 7
# [5] = system: Influenza A virus H5N1, Duck/MN/1525/81; assay: microbe, parasite or virus in culture; format: cell-based
# [6] = system: Influenza A virus H5N1, Hong Kong/213/2003; assay: microbe, parasite or virus in culture; format: cell-based; details: Influenza A virus, H5N1; remark: listed apart in the source
# [7] = system: Influenza A virus H1N1, California/07/2009; assay: microbe, parasite or virus in culture; format: cell-based
# [8] = system: Influenza B virus, B/Florida/4/2006; assay: microbe, parasite or virus in culture; format: cell-based
# [9] = system: Influenza A virus H1N1, California/07/2009; assay: microbe, parasite or virus in culture; format: cell-based; details: Table 13, Neutral Red, read-out: EC50
# Perth/16/2009 = assay: microbe, parasite or virus in culture; format: cell-based; details: unidentified influenza virus; Table 7
# CA/07/2009 virus H1N1 = assay: Viral Plaque Reduction Assay (Table 22); format: cell-based; details: Influenza A virus
# hERG = hERG (Homo sapiens, UniProt Q12809)
# Chain of hERG (Q12809 whole entry): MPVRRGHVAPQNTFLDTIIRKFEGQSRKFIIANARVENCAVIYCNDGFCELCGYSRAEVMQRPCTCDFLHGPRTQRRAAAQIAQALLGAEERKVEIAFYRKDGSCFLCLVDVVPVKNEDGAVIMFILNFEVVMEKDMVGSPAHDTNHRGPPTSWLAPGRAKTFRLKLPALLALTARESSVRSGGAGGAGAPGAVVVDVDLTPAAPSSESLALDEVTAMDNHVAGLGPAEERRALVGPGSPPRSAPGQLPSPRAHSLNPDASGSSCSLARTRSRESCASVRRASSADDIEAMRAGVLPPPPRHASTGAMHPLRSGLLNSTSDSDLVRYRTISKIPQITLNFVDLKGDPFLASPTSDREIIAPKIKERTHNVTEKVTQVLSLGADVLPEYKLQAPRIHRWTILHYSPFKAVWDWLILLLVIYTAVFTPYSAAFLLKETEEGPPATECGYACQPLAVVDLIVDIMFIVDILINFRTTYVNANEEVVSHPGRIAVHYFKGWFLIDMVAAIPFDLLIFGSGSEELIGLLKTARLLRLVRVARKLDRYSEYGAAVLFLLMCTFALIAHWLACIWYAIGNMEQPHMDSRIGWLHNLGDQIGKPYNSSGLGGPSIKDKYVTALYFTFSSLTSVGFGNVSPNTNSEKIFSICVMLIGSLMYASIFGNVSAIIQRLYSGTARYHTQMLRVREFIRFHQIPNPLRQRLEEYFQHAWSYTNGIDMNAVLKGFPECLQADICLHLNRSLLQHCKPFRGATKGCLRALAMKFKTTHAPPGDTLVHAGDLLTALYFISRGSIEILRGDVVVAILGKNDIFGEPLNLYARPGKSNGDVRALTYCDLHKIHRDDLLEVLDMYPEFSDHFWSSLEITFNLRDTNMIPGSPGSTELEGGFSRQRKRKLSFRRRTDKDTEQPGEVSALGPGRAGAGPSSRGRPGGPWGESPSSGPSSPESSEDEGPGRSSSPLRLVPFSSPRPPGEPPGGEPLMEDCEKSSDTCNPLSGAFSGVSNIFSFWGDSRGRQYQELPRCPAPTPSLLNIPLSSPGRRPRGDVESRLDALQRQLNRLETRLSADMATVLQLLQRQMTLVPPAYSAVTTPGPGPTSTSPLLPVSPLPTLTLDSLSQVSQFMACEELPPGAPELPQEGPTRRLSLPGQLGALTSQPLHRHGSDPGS
# A/Mississippi/03/01H274Y = format: cell-based, influenza virus
# [10] = system: Influenza B virus, B/Florida/4/2006; assay: microbe, parasite or virus in culture; format: cell-based; details: Table 19, Neutral Red (Cytopathic effect/Toxicity), B/Florida/4/2006, read-out: EC50
# [11] = system: Influenza B virus, B/Brisbane/60/2008; assay: microbe, parasite or virus in culture; format: cell-based
compound,measurement,setting,value
"CC(=O)N[C@H]1[C@H]([C@H](OC(=O)NCCCCCCCCCNC(=O)c2cc(C(=O)NCCCCCCCCCNC(=O)O[C@@H]([C@@H]3OC(C(=O)O)=C[C@H](NC(=N)N)[C@H]3NC(C)=O)[C@H](O)CO)c(C(=O)N[C@H](CC(=O)NCS(=O)(=O)O)C(=O)NCS(=O)(=O)O)cc2C(=O)N[C@H](CC(=O)NCS(=O)(=O)O)C(=O)NCS(=O)(=O)O)[C@H](O)CO)OC(C(=O)O)=C[C@@H]1NC(=N)N [MD185, PK2PYR(Zn)2[(D-Asp)(NHCH2SO3)2]2]",EC50,[1],< 0.32 ng/mL
same,EC50,A/PR/8 virus H1N1,4.26 nM
same,EC50,[2],6.2 ng/mL
same,EC50,[3],0.1 ng/mL
same,EC90,[4],0.86 ng/mL
same,Number of Hits,kinases,0
same,EC50,Florida/4/2006,< 0.00013 µg/mL and < 0.07 nM
same,EC50,CA/07/2009,3.2 nM
same,EC50,CA/07/2009; MDCK cell line,6 ng/mL
same,EC90,[5],1.53 ng/mL
same,EC90,[6],< 0.32 ng/mL
same,EC90,[7],0.26 ng/mL
same,EC50,[8],6 ng/mL
same,EC50,[9],0.15 ng/mL
same,EC50,Perth/16/2009,< 0.00013 µg/mL and < 0.07 nM
same,EC50,CA/07/2009 virus H1N1,9.5e-05 µg/mL and 0.0514 nM
same,hERG IC50,hERG,not calculable
same,EC50,A/Mississippi/03/01H274Y,0.89 nM
same,EC50,[10],6.2 ng/mL
same,EC50,[11],6 ng/mL
